The results in this text go back to US12281057B2 (VERTEX PHARMACEUTICALS INCORPORATED, priority 2017, dated 2025).

pIC50: −log10 of the molar value.

truncated form of human NaV 1.8 with full channel activity, sequence (Q9Y5Y9 126-1722 limits assumed): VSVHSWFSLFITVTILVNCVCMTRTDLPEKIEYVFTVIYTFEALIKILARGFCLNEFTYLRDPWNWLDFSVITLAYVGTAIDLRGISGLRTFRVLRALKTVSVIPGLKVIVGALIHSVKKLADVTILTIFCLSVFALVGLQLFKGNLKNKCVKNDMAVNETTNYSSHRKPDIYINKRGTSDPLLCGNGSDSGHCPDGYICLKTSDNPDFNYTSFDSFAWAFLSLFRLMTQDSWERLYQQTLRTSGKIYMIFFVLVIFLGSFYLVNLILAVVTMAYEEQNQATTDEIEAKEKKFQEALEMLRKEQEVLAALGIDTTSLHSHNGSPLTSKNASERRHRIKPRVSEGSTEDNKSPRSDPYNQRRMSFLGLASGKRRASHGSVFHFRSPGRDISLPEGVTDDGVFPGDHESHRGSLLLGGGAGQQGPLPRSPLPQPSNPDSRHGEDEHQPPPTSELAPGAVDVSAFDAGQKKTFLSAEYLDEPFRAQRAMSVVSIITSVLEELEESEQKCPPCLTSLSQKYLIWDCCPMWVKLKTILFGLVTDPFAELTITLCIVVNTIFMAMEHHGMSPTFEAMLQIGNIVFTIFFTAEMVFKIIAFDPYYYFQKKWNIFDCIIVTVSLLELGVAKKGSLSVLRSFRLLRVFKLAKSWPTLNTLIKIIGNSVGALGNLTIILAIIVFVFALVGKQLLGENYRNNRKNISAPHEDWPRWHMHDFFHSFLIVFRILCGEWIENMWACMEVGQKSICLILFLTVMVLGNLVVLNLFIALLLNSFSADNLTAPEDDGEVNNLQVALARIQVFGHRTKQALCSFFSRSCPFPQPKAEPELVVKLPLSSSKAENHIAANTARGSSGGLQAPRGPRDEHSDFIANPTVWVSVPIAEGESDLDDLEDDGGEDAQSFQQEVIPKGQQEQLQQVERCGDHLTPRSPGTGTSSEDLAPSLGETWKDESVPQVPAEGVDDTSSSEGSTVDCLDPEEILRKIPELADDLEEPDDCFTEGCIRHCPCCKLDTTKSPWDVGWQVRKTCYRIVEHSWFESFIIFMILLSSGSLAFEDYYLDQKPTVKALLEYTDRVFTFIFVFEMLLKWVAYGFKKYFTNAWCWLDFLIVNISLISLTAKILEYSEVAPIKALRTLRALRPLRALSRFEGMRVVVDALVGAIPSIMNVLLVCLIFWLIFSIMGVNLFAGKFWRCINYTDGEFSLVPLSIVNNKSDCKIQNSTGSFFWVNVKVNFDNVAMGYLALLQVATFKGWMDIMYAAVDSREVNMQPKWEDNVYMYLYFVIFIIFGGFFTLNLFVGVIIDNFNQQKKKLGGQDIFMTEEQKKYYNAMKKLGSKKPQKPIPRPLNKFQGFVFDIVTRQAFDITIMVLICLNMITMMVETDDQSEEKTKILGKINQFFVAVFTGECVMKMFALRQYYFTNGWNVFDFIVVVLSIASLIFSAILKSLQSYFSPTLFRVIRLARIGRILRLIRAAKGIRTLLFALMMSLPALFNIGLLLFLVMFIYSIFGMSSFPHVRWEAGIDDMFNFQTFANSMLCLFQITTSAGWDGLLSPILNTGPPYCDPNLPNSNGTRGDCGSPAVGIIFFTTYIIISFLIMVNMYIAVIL

The target in the assay is truncated form of human NaV 1.8 with full channel activity (Homo sapiens, UniProt Q9Y5Y9). Description: E-VIPR Assay Method A for detecting and measuring Nav inhibition (HEK cells, membrane potential FRET dyes, electrical stimulation). The format is cell-based. Conditions: HEK cells expressing human NaV 1.8, HS (human serum) in compound loading buffer, 11 point dose response, top dose 3 μM, Table 20A, read-out: Nav 1.8 MedChem Optical Assay EVIPR Assay Method A HS IC50. Summed up:
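Read-out: FRET membrane-potential dye ratio (460/580 nm) before and during E-VIPR field stimulation at 10 Hz for 10 s, expressed as % activity between DMSO and positive controls. Cells: HEK with truncated human NaV1.8; compound preincubated 30 min at room temp, final DMSO 0.625%.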
On to `[2H]C([2H])([2H])Oc1c(Oc2ccc(OC(F)(F)F)c(F)c2C(=O)Nc2ccnc(C(N)=O)c2)ccc(OC(F)(F)F)c1F` [Compound 225, 4-[[2-Fluoro-6-[3-fluoro-2-(trideuteriomethoxy)-4-(trifluoromethoxy)phenoxy]-3-(trifluoromethoxy)benzoyl]amino]pyridine-2-carboxamide], for which the pIC50 (as a rule, the negative decadic logarithm of the IC50, by convention in mol/L) was 8.52. To `[2H]C([2H])([2H])Oc1c(Oc2ccc(C(F)(F)F)c(F)c2C(=O)Nc2cc(C(N)=O)ncc2C)ccc(OC(F)(F)F)c1F` [Compound 227, 4-[[2-Fluoro-6-[3-fluoro-2-(trideuteriomethoxy)-4-(trifluoromethoxy)phenoxy]-3-(trifluoromethyl)benzoyl]amino]-5-methyl-pyridine-2-carboxamide] belongs 8.70; to `[2H]C([2H])([2H])Oc1c(Oc2ccc(C(F)(F)F)c(F)c2C(=O)Nc2ccnc(C(=O)NC)c2)ccc(OC(F)(F)F)c1F` [Compound 228, 4-[[2-Fluoro-6-[3-fluoro-2-(trideuteriomethoxy)-4-(trifluoromethoxy)phenoxy]-3-(trifluoromethyl)benzoyl]amino]-N-methyl-pyridine-2-carboxamide], 8.15; to `[2H]C([2H])([2H])Oc1c(Oc2ccc(C(F)(F)F)c(F)c2C(=O)Nc2ccc(C(=O)NC)nc2)ccc(OC(F)(F)F)c1F` [Compound 229, 5-[[2-Fluoro-6-[3-fluoro-2-(trideuteriomethoxy)-4-(trifluoromethoxy)phenoxy]-3-(trifluoromethyl)benzoyl]amino]-N-methyl-pyridine-2-carboxamide], 7.33. To `[2H]C([2H])([2H])Oc1c(Oc2ccc(OC(F)(F)F)c(NC)c2C(=O)Nc2ccnc(C(=O)NC)c2)ccc(OC(F)(F)F)c1F` [Compound 230, 4-[[6-[3-Fluoro-2-(trideuteriomethoxy)-4-(trifluoromethoxy)phenoxy]-2-(methylamino)-3-(trifluoromethoxy)benzoyl]amino]-N-methyl-pyridine-2-carboxamide] belongs 6.60; to `[2H]C([2H])([2H])Oc1c(Oc2ccc(OC(F)(F)F)c(F)c2C(=O)Nc2cc(C(N)=O)ncc2C)ccc(OC(F)(F)F)c1F` [Compound 231, 4-[[2-Fluoro-6-[3-fluoro-2-(trideuteriomethoxy)-4-(trifluoromethoxy)phenoxy]-3-(trifluoromethoxy)benzoyl]amino]-5-methyl-pyridine-2-carboxamide], 8.05. As for `[2H]C([2H])([2H])c1c(Oc2ccc(C(F)(F)F)c(F)c2C(=O)Nc2ccnc(C(N)=O)c2)ccc(OC(F)(F)F)c1F` [Compound 232, 4-[[2-Fluoro-6-[3-fluoro-2-(trideuteriomethyl)-4-(trifluoromethoxy)phenoxy]-3-(trifluoromethyl)benzoyl]amino]pyridine-2-carboxamide], the figure is 7.77; as for `[2H]C([2H])([2H])Oc1c(Oc2cc(Cl)c(C(F)F)c(OC)c2C(=O)Nc2ccnc(C(N)=O)c2)ccc(OC(F)(F)F)c1F` [Compound 233], 8.40. On to `[2H]C([2H])([2H])Oc1c(Oc2cc(Cl)c(C(F)F)c(F)c2C(=O)Nc2ccnc(C(N)=O)c2)ccc(OC(F)(F)F)c1F` [Compound 234, 4-[[4-Chloro-3-(difluoromethyl)-2-fluoro-6-[3-fluoro-2-(trideuteriomethoxy)-4-(trifluoromethoxy)phenoxy]benzoyl]amino]pyridine-2-carboxamide], for which the pIC50 is 8.40.

With `[2H]C([2H])([2H])Oc1c(Oc2ccc(C(F)F)c(F)c2C(=O)Nc2ccnc(C(N)=O)c2)ccc(OC(F)(F)F)c1F` [Compound 235, 4-[[3-(Difluoromethyl)-2-fluoro-6-[3-fluoro-2-(trideuteriomethoxy)-4-(trifluoromethoxy)phenoxy]benzoyl]amino]pyridine-2-carboxamide], the pIC50 was 8.30. To `[2H]C([2H])([2H])Oc1c(Oc2ccc(C(F)F)c(F)c2C(=O)Nc2ccc(C(N)=O)nc2)ccc(OC(F)(F)F)c1F` [Compound 236, 5-[[3-(Difluoromethyl)-2-fluoro-6-[3-fluoro-2-(trideuteriomethoxy)-4-(trifluoromethoxy)phenoxy]benzoyl]amino]pyridine-2-carboxamide] belongs 7.35; to `[2H]C([2H])([2H])Oc1c(Oc2ccc(C(F)F)c(F)c2C(=O)Nc2cc(C(N)=O)ncc2C)ccc(OC(F)(F)F)c1F` [Compound 237, 4-[[3-(Difluoromethyl)-2-fluoro-6-[3-fluoro-2-(trideuteriomethoxy)-4-(trifluoromethoxy)phenoxy]benzoyl]amino]-5-methyl-pyridine-2-carboxamide], 7.92. To `COc1cc(OC(F)(F)F)ccc1Oc1cc(C(F)(F)F)ncc1C(=O)Nc1ccc(C)c(C(N)=O)c1` [Compound 238, N-(3-carbamoyl-4-methyl-phenyl)-4-[2-methoxy-4-(trifluoromethoxy)phenoxy]-6-(trifluoromethyl)pyridine-3-carboxamide] belongs 6.40; to `COc1cc(OC(F)(F)F)ccc1Oc1cc(C(F)(F)F)ncc1C(=O)Nc1ccc(OC)c(C(N)=O)c1` [Compound 239, N-(3-carbamoyl-4-methoxy-phenyl)-4-[2-methoxy-4-(trifluoromethoxy)phenoxy]-6-(trifluoromethyl)pyridine-3-carboxamide], 5.57.

In the case of `[2H]C([2H])([2H])Oc1c(Oc2ccc(Cl)c(F)c2C(=O)Nc2cc(C(N)=O)ncc2C)ccc(OC(F)(F)F)c1F` [Compound 240, 4-[[3-chloro-2-fluoro-6-[3-fluoro-2-(trideuteriomethoxy)-4-(trifluoromethoxy)phenoxy]benzoyl]amino]-5-methyl-pyridine-2-carboxamide], the pIC50 is 7.96. To `NC(=O)c1cc(NC(=O)c2c(Oc3ccc(OC(F)(F)F)c(F)c3)ccc(OC(F)(F)F)c2F)ccn1` [Compound 241, 4-[[2-fluoro-6-[3-fluoro-4-(trifluoromethoxy)phenoxy]-3-(trifluoromethoxy)benzoyl]amino]pyridine-2-carboxamide] belongs 7.42. Consider `Cc1cnc(C(N)=O)cc1NC(=O)c1c(Oc2ccc(OC(F)(F)F)cc2)ccc(C(F)(F)F)c1F` [Compound 242, 4-[[2-fluoro-6-[4-(trifluoromethoxy)phenoxy]-3-(trifluoromethyl)benzoyl]amino]-5-methyl-pyridine-2-carboxamide], for which the pIC50 was 7.36.

As for `NC(=O)c1cc(NC(=O)c2c(Oc3ccc(OC(F)(F)F)cc3)ccc(OC(F)(F)F)c2F)ccn1` [Compound 243, 4-[[2-fluoro-3-(trifluoromethoxy)-6-[4-(trifluoromethoxy)phenoxy]benzoyl]amino]pyridine-2-carboxamide], the pIC50 is 7.62.

Turning to `Cc1cnc(C(N)=O)cc1NC(=O)c1c(Oc2ccc(OC(F)(F)F)cc2)ccc(Cl)c1F` [Compound 244, 4-[[3-chloro-2-fluoro-6-[4-(trifluoromethoxy)phenoxy]benzoyl]amino]-5-methyl-pyridine-2-carboxamide], the pIC50 is 7.14.

Take `Cc1cnc(C(N)=O)cc1NC(=O)c1c(Oc2ccc(OC(F)(F)F)c(F)c2)ccc(Cl)c1F` [Compound 245, 4-[[3-chloro-2-fluoro-6-[3-fluoro-4-(trifluoromethoxy)phenoxy]benzoyl]amino]-5-methyl-pyridine-2-carboxamide]: the pIC50 was 7.44.
